Read-outs that look alike come from different tables or passages of the source. Blank lines part the entries; values can stand above or below the molecule they belong to.
What was measured:
[1] = DVS (dynamic vapor sorption) hygroscopicity testing; format: physicochemical
Procedure: DVS refers to dynamic vapor sorption: Surface Measurement Systems instrinsic was adopted; the humidity started at 50%, the humidity range of the investigation was 0%-95%, and the humidity was increased in increments of 10%; the criterion was that each gradient mass change dM/dT is ≤ 0.002%, TMAX 360 min, two cycles.

[2] = Long-term accelerated stability tests; format: physicochemical; conditions: for Purity (%): Initial; for Crystal form: up to 6 months
Excerpt: Table 12. The long-term accelerated stability of the crystal form

[3] = Influencing factors stability test (light exposure, high temperature, high humidity); format: physicochemical; conditions: for remaining at 120 h / remaining at 240 h / remaining at 720 h: solid storage, read-out: Purity%
Excerpt: Table 11. The influencing factor stability of the crystal form

[4] = system: miR-124; assay: Up-regulation of miR-124 in CD3/CD28 antibody-activated T cells (SYBR green fluorescence quantitative PCR); format: cell-based; conditions: T-cell, 72 h; activated human T cells, final compound concentration 1 µM, 3 days; relative to DMSO, U6 internal reference; read-out: up-regulated miR-124 (relative expression level)
Procedure: The effect of the compound on miR-124 expression levels was assessed in CD3/CD28 antibody-activated T cells. After the activated T cells were treated with the compound, the total cellular RNA was extracted, the cDNA obtained from reverse transcription was used as a template, and quantification was performed by using an SYBR green fluorescence quantitative PCR method and a specific miR-124 primer.
Isolation of T cells: The purchased human peripheral blood mononuclear cells (PBMCs) were counted, filtered, and then washed once with a separation buffer (PBS, pH 7.4, containing 0.5% BSA and 2 mM EDTA), and the supernatant was discarded. Various components were added in such a manner that for every 1 × 10^7 cells, 40 µL of buffer and 10 µL of pan T Cell Biotin-Antibody Cocktail were added. The pellets were resuspended and well mixed, and the suspension was incubated in a refrigerator at 4 °C for 5 min. After the incubation was completed, various components were added in such a manner that for every 1 × 10^7 cells, 30 µL of buffer and 20 µL of Pan T Cell MicroBeads Cocktail were added. After thorough mixing, the mixture was incubated in a refrigerator at 4 °C for 10 min. […] The cells were counted and added at a density of 1 × 10^6 cells/mL to an RPMI1640 culture medium (complete culture medium) containing 10% FBS and 40 U/mL IL-2, and the mixture was stored on ice for later use. […]

[5] = Light exposure (4500 Lux), 5 days
[6] = Light exposure (4500 Lux), 10 days
[7] = Light exposure (4500 Lux), 30 days

hygroscopic weight gain ([1]; accelerated experimental conditions (70% RH)): about 0.02% | crystal form re-identified after DVS testing ([1]; after DVS testing): the crystal form did not change | hygroscopic weight gain ([1]; extreme conditions (90% RH)): about 0.18% | hygroscopic weight gain ([1]; normal storage conditions (room temperature and 60% RH)): about 0.02% | Purity (%) ([2]; 25 °C, 60% RH): 100.0% | Crystal form ([2]; 25 °C, 60% RH): Did not change | Purity (%) ([2]; 40 °C, 75% RH): 100.0% | Crystal form ([2]; 40 °C, 75% RH): Did not change | remaining at 720 h ([2]; solid storage, 25 °C, 60% RH, 1M, read-out: Purity (%)): 100% | remaining at 1440 h ([2]; solid storage, 25 °C, 60% RH, 2M, read-out: Purity (%)): 100% | remaining at 2160 h ([2]; solid storage, 25 °C, 60% RH, 3M, read-out: Purity (%)): 100% | remaining at 4320 h ([2]; solid storage, 25 °C, 60% RH, 6M, read-out: Purity (%)): 100% | Color and state ([3]; 40°C, 5 days): Off-white solid | Crystal form ([3]; 40°C, 5 days): Did not change | Color and state ([3]; 40°C, 10 days): Off-white solid | Crystal form ([3]; 40°C, 10 days): Did not change | Color and state ([3]; 40°C, 30 days): Off-white solid | Crystal form ([3]; 40°C, 30 days): Did not change | Color and state ([3]; 60°C, 5 days): Off-white solid | Crystal form ([3]; 60°C, 5 days): Did not change | Color and state ([3]; 60°C, 10 days): Off-white solid | Crystal form ([3]; 60°C, 10 days): Did not change | Color and state ([3]; 60°C, 30 days): Off-white solid | Crystal form ([3]; 60°C, 30 days): Did not change | Color and state ([3]; 75% RH, 5 days): Off-white solid | Crystal form ([3]; 75% RH, 5 days): Did not change | Color and state ([3]; 75% RH, 10 days): Off-white solid | Crystal form ([3]; 75% RH, 10 days): Did not change | Color and state ([3]; 75% RH, 30 days): Off-white solid | Crystal form ([3]; 75% RH, 30 days): Did not change | Color and state ([3]; 92.5% RH, 5 days): Off-white solid | Crystal form ([3]; 92.5% RH, 5 days): Did not change | Color and state ([3]; 92.5% RH, 10 days): Off-white solid | Crystal form ([3]; 92.5% RH, 10 days): Did not change | Color and state ([3]; 92.5% RH, 30 days): Off-white solid | Crystal form ([3]; 92.5% RH, 30 days): Did not change | Color and state ([3]; Initial, 0 days): Off-white solid | Crystal form ([3]; Initial, 0 days): Crystal form A | Purity (%) ([3]; Initial, 0 days): 100.0% | Color and state [3, 5]: Off-white solid | Crystal form [3, 5]: Did not change | Color and state [3, 6]: Off-white solid | Crystal form [3, 6]: Did not change | Color and state [3, 7]: Off-white solid | Crystal form [3, 7]: Did not change | remaining at 120 h ([3]; 40°C, 5 days): 100% | remaining at 240 h ([3]; 40°C, 10 days): 100% | remaining at 720 h ([3]; 40°C, 30 days): 100% | remaining at 120 h ([3]; 60°C, 5 days): 100% | remaining at 240 h ([3]; 60°C, 10 days): 100% | remaining at 720 h ([3]; 60°C, 30 days): 100% | remaining at 120 h ([3]; 75% RH, 5 days): 100% | remaining at 240 h ([3]; 75% RH, 10 days): 100% | remaining at 720 h ([3]; 75% RH, 30 days): 100% | remaining at 120 h ([3]; 92.5% RH, 5 days): 100% | remaining at 240 h ([3]; 92.5% RH, 10 days): 100% | remaining at 720 h ([3]; 92.5% RH, 30 days): 100% | remaining at 120 h [3, 5]: 100% | remaining at 240 h [3, 6]: 100% | remaining at 720 h [3, 7]: 99.9%
SMILES: FC1(F)Oc2ccc(Nc3ccc4cccc(Cl)c4n3)cc2O1 [crystal form A, 8-chloro-N-(2,2-difluorobenzo[d][1,3]dioxol-5-yl)quinolin-2-amine]
physical and chemical stability (conclusion) ([2]; 25 °C/60% RH and 40 °C/75% RH, 6 months): both good physical stability and good chemical stability | physical and chemical stability (conclusion) ([3]; light exposure, 40 °C and 60 °C, 75% and 92.5% humidity, 30 days): both good physical stability and good chemical stability

SMILES: FC1(F)Oc2ccc(Nc3ccc4cccc(Cl)c4n3)cc2O1 [Compound 1, 8-Chloro-N-(2,2-difluorobenzo[d][1,3]dioxol-5-yl)quinolin-2-amine]
fold induction at 1 µM [4]: 3.9

— EP4624469A1 (Jiangsu Hengrui Pharmaceuticals Co., Ltd., priority 2022, dated 2024)
